Measurements published in patent US20220409617A1, “Drug Formulations and Methods of Treatment for Metabolic Disorders” (The Regents of the University of California, priority 2019, published 2022).

Key:
[1] = test system: mouse embryonic fibroblasts (MEFs); experiment: Ceramide-induced (C16:0 CER, C2-ceramide) mitochondrial fragmentation; type: cell-based; conditions: MEFs, 893 5 μM
Experimental: 3T3-L1 cells were maintained in DMEM with 10% FBS and 1% penicillin-streptomycin until induced to differentiate. 3T3-L1 pre-adipocytes were differentiated as described in (M. P. Valley, et al., Anal. Biochem. 505: 43-50, 2016, the disclosure of which is incorporated herein by reference) with slight modifications. Briefly, pre-adipocytes were grown to confluence. After 2 d, cells were induced with maintenance media containing 500 μM IBMX (15879, Sigma-Aldrich, St. Louis, Mo.), 1 μM dexamethasone (D4902, Sigma-Aldrich), 5 μg/mL bovine insulin (10516, Sigma-Aldrich), and 5 μM troglitazone (50-115-0786, ApexBio). Media was changed every 2-3 d for 7 d. On day 7 post-induction, media was changed to maintenance media+5 μg/mL bovine insulin. On day 9 post-induction, media was changed to maintenance media. Mature adipocytes were used 12-14 d post-induction for all experiments. LSL-KrasG12D mouse embryonic fibroblasts (MEFs) with and without Cre-mediated deletion of the STOP cassette were obtained from David Tuveson (Cold Spring Harbor Laboratory, Cold Spring Harbor N.Y., USA) in 2000. p53^flox/flox MEFs were derived in house (2015) from C57BL/6 mice using standard techniques and immortalized by transient expression of Cre recombinase and deletion of p53. MEFs were cultured and maintained in DMEM with 10% FBS and 1% penicillin-streptomycin. A549 cells were cultured in DMEM with 10% FBS, 1% penicillin-streptomycin and 1% sodium pyruvate. Stock solution of palmitic acid (ACROS Organics, cat # AC129702500) was prepared at 100 mM in ethanol. Palmitate (250 μM) was conjugated to 1% (w/v) fatty-acid free bovine serum albumin (Sigma, A8806) in DMEM at 37° C. for 20 min. For all immunofluorescence assays, 8,000 MEFs were seeded into 8-chamber slides (Cellvis, cat # C8-1.5H-N) 12-16 h before treatment. Cells were pre-treated with sphingolipid-like compound 893 (5 μM in water), myriocin (10 μM in methanol), fumonisin-B1 (30 μM in DMSO), or celastrol (500 nM in DMSO) for 3 h followed by a 3 h treatment with BSA-conjugated palmitate mixture or BSA alone. Where cells were treated with C2-ceramide (50 μM in DMSO) or C16:0 ceramide (100 μM in ethanol) for 3 h, cells were pre-treated with sphingolipid-like compound 893 for 1-3 h as indicated, mdivi-1 (50 μM in DMSO) for 1 h or 24 h, M1 (5 μM in DMSO) for 24 h, mdivi-1 and M1 together for 24 h, leflunomide (50 μM in methanol) for 1 h or 24 h, or with P110 (1 μM in water) for 1 h or 12 h. LSL or KRAS^G12D MEFs were treated with sphingolipid-like compound 893 (5 μM) for 6 h prior to fixation.
MEFs were washed twice with PBS and fixed with 4% paraformaldehyde for 10 min at RT. Cells were permeabilized with 0.3% Triton X-100 in blocking buffer containing 10% fetal bovine serum for 20 min at 37° C. followed by overnight incubation with mouse anti-citrate synthase (sc-390693, Santa Cruz Biotechnology; dilution, 1:200) or rabbit-anti-DRP1 at 1:100 (#8570, Cell Signaling Technology) at 4° C. Cells were then washed twice with PBS and incubated with AlexaFluor 488 goat anti-mouse (A28175, Invitrogen) or AlexaFluor 594 donkey anti-rabbit (A32754, Invitrogen) secondary antibodies at RT followed by 5 min incubation with 1 μg/ml DAPI and 2 washes in PBS. For NADH autofluorescence studies, mice were gavaged with vehicle or 120 mg/kg sphingolipid-like compound 893 at ZT8.5 (4-10.5 h before sacrifice between ZT12.5 and ZT18). Post sacrifice, livers were excised, washed 3× with PBS, placed in DMEM supplemented with 10% FBS and 1% penicillin-streptomycin, and immediately imaged. NADH/NADPH autofluorescence was detected with 740 nm excitation and 450±50 nm detectors using a Mai Tai two-photon laser. Fluorescence microscopy was performed on a Zeiss LSM 780 confocal using a 63× oil objective with a […] numerical aperture (NA) or using a Nikon TE2000-S inverted epifluorescence microscope with a 100× oil objective (1.3 NA) and a Photometrics CoolSNAP ES2 monochrome CCD camera. […]

[2] = test system: protein phosphatase 2A (PP2A); conditions: cited from earlier work

SMILES: CCCCCCCCc1ccc([C@H]2CCN[C@@H]2CO)cc1.Cl [compound 893]
- Pre-treatment time after which the compound was effective against C16:0 ceramide-induced fragmentation [1]: 1 h
- Protection from ceramide-induced mitochondrial fragmentation ([1]; C16:0 CER 100 μM or C2-ceramide 50 μM 3 h, mdivi-1 50 μM, M1 5 μM, leflunomide 50 μM, P110 1 μM): blocked ceramide-induced mitochondrial fragmentation
- Effect on PP2A [2]: activate protein phosphatase 2A (PP2A)
